The IC50 is the point on the concentration scale where inhibition reaches its midpoint.

Assay [1] deals with His6-TEV-PDGFRβ (557-1016) (Homo sapiens (Human), UniProt P09619). Put plainly: PDGFRβ HTRF Assay. The format is biochemical. The note with it: read-out: PDGFR HTRF IC50. In short, it runs like this:
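Human PDGFRβ (557-1016) pre-incubated with compound for 30 min at RT in pH 7.5 HEPES/MgCl2/EGTA/Brij-35/DTT buffer. Reaction started with ATP and TK-biotin peptide, run 3 h at RT, then quenched with EDTA-containing Eu-cryptate antibody/streptavidin-XL665. HTRF 665/620 nm ratio read after 60 min; percent inhibition relative to DMSO and 10 μM imatinib controls.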

A further assay deals with PDGFRβ (Rattus norvegicus (Rat), UniProt Q05030). Description: PDGFRβ Cellular Assay (PDGFRb P-Y751 HTRF in A10 cells stimulated with PDGF-BB). The format is cell-based. The conditions noted are these: read-out: PDGFR Cellular IC50. In short, it runs like this: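 Rat A10 cells, plated overnight, were treated with compound for 3 hours, then stimulated with PDGF-BB (working stock 100 ng/mL in 10% FBS medium). After lysis, PDGFRβ P-Y751 was detected by HTRF.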
(TR-FRET usually uses a lanthanide donor and a delayed reading to cut background.)

PDGFRβ, sequence (Q05030 32-1097): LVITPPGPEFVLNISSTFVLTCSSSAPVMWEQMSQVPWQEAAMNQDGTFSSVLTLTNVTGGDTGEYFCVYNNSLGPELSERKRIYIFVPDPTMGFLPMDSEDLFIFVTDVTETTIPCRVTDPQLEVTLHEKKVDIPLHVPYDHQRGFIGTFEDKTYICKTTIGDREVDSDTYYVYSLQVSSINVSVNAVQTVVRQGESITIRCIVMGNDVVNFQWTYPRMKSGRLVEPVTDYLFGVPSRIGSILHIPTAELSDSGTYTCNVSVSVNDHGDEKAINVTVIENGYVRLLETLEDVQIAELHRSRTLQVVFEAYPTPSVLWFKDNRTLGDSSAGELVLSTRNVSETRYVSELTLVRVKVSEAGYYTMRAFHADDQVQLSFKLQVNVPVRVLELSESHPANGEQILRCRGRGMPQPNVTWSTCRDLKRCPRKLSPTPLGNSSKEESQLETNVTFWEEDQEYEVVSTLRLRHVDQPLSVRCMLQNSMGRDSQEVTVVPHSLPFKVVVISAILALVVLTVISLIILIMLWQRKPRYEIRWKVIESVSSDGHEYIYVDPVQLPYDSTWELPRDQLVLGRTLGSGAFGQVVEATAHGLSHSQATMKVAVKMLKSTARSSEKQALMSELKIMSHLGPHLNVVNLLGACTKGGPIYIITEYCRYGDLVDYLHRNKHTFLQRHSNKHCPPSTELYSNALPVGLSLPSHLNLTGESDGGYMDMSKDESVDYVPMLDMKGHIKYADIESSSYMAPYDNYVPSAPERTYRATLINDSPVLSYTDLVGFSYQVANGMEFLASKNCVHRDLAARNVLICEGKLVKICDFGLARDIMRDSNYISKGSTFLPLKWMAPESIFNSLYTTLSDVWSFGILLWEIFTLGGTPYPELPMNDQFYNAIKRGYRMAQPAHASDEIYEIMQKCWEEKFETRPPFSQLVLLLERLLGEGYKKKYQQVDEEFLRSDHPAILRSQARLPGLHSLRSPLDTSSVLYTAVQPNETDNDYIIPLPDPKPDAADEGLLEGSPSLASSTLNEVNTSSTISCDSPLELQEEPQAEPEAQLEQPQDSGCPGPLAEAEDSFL
His6-TEV-PDGFRβ (557-1016), sequence (P09619 557-1016): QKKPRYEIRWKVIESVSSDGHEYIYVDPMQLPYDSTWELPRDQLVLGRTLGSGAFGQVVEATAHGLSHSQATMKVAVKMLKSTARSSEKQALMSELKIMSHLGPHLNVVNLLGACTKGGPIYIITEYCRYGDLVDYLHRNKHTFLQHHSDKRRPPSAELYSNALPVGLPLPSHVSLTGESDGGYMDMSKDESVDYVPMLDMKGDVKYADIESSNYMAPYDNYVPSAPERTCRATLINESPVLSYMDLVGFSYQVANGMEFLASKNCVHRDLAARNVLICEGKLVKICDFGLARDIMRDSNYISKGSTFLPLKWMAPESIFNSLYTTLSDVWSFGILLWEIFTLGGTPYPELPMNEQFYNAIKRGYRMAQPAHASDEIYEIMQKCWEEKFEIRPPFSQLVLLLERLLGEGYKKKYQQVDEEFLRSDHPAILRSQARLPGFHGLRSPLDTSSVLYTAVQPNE

On to `Cc1ncc(C(=O)NCCN2CC3CCC2CC3)cc1NC(=O)c1cnn2cc(-c3cnn4c3COCC4)sc12` [Example 459, N-(5-((2-(2-azabicyclo[2.2.2]octan-2-yl)ethyl)carbamoyl)-2-methylpyridin-3-yl)-2-(6,7-dihydro-4H-pyrazolo[5,1-c][1,4]oxazin-3-yl)pyrazolo[5,1-b]thiazole-7-carboxamide], for which the IC50 is 0.3 nM in assay [1] and 33.7 nM on PDGFRβ.
Turning to `Cc1ncc(C(=O)NCCN2CCCC2(C)C)cc1NC(=O)c1cnn2cc(-c3cnn4c3OCCC4)sc12` [Example 460, 2-(6,7-dihydro-5H-pyrazolo[5,1-b][1,3]oxazin-3-yl)-N-(5-((2-(2,2-dimethylpyrrolidin-1-yl)ethyl)carbamoyl)-2-methylpyridin-3-yl)pyrazolo[5,1-b]thiazole-7-carboxamide], the IC50 in assay [1] worked out at 0.3 nM; at PDGFRβ it was 13.4 nM.
In the same order, the values of `Cc1ncc(C(=O)NCCN2CCCC23CCC3)cc1NC(=O)c1cnn2cc(-c3cnn4c3CCC4)sc12` [Example 461, N-(5-((2-(5-azaspiro[3.4]octan-5-yl)ethyl)carbamoyl)-2-methylpyridin-3-yl)-2-(5,6-dihydro-4H-pyrrolo[1,2-b]pyrazol-3-yl)pyrazolo[5,1-b]thiazole-7-carboxamide] are 0.2 nM and 2.1 nM.
On the same counts, the results for `COCCn1cc(-c2cn3ncc(C(=O)Nc4cc(NC(=O)CCC5CCCN5C)cnc4C)c3s2)cn1` (stereo not shown) [Example 462, 2-(1-(2-methoxyethyl)-1H-pyrazol-4-yl)-N-(2-methyl-5-(3-(1-methylpyrrolidin-2-yl)propanamido)pyridin-3-yl)pyrazolo[5,1-b]thiazole-7-carboxamide] are 0.7 nM and 298 nM.
Consider `COCCn1cc(-c2cn3ncc(C(=O)Nc4cc(NC(=O)CCC5CCCN5C(C)C)cnc4C)c3s2)cn1` (stereo not shown) [Example 463, N-(5-(3-(1-isopropylpyrrolidin-2-yl)propanamido)-2-methylpyridin-3-yl)-2-(1-(2-methoxyethyl)-1H-pyrazol-4-yl)pyrazolo[5,1-b]thiazole-7-carboxamide], for which the IC50 worked out at 0.7 nM in assay [1] and 782 nM at PDGFRβ.
In the same order, the values of `Cc1ncc(NC(=O)C[C@@H]2CCN(C(C)C)C2)cc1NC(=O)c1cnn2cc(-c3cnn(C)c3)sc12` [Example 464, (S)—N-(5-(2-(1-isopropylpyrrolidin-3-yl)acetamido)-2-methylpyridin-3-yl)-2-(1-methyl-1H-pyrazol-4-yl)pyrazolo[5,1-b]thiazole-7-carboxamide] are 5.2 nM and 2000 nM.
With `Cc1ncc(NC(=O)C[C@H]2CCN(C(C)C)C2)cc1NC(=O)c1cnn2cc(-c3cnn(C)c3)sc12` [Example 465, (R)—N-(5-(2-(1-isopropylpyrrolidin-3-yl)acetamido)-2-methylpyridin-3-yl)-2-(1-methyl-1H-pyrazol-4-yl)pyrazolo[5,1-b]thiazole-7-carboxamide], the IC50 came to 3 nM in assay [1] and 1860 nM on PDGFRβ.
In the same order, the values of `COCCn1cc(-c2cn3ncc(C(=O)Nc4cc(NC(=O)C[C@@H]5CCN(C(C)C)C5)cnc4C)c3s2)cn1` [Example 466, (S)—N-(5-(2-(1-isopropylpyrrolidin-3-yl)acetamido)-2-methylpyridin-3-yl)-2-(1-(2-methoxyethyl)-1H-pyrazol-4-yl)pyrazolo[5,1-b]thiazole-7-carboxamide] are 9 nM and 350 nM.
With `COCCn1cc(-c2cn3ncc(C(=O)Nc4cc(NC(=O)CN5CCC5C(C)C)cnc4C)c3s2)cn1` (stereo not shown) [Example 467, N-(5-(2-(2-isopropylazetidin-1-yl)acetamido)-2-methylpyridin-3-yl)-2-(1-(2-methoxyethyl)-1H-pyrazol-4-yl)pyrazolo[5,1-b]thiazole-7-carboxamide], the values for the IC50 (in assay [1]; on PDGFRβ) were 0.4 nM and 4.4 nM, respectively.
Turning to `Cc1ncc(NC(=O)CC2CN(C)C2)cc1NC(=O)c1cnn2cc(-c3cnn4c3CCC4)sc12` [Example 468, 2-(5,6-dihydro-4H-pyrrolo[1,2-b]pyrazol-3-yl)-N-(2-methyl-5-(2-(1-methylazetidin-3-yl)acetamido)pyridin-3-yl)pyrazolo[5,1-b]thiazole-7-carboxamide], the half-maximal inhibitory concentration (IC50) was found to be 2.1 nM in assay [1] and 2000 nM at PDGFRβ.
In the same order, the values of `Cc1ncc(C(=O)NCC2CCCN2C)cc1NC(=O)c1cnn2cc(-c3cnn4c3CCC4)sc12` (stereo not shown) [Example 469, 2-(5,6-dihydro-4H-pyrrolo[1,2-b]pyrazol-3-yl)-N-(2-methyl-5-(((1-methylpyrrolidin-2-yl)methyl)carbamoyl)pyridin-3-yl)pyrazolo[5,1-b]thiazole-7-carboxamide] are 0.3 nM and 40.5 nM.
On the same counts, the results for `Cc1ncc(C(=O)NCC2CCCN2C)cc1NC(=O)c1cnn2cc(-c3cnn4c3OCCC4)sc12` (stereo not shown) [Example 470, 2-(6,7-dihydro-5H-pyrazolo[5,1-b][1,3]oxazin-3-yl)-N-(2-methyl-5-(((1-methylpyrrolidin-2-yl)methyl)carbamoyl)pyridin-3-yl)pyrazolo[5,1-b]thiazole-7-carboxamide] are 0.5 nM and 109 nM.
In the same order, the values of `Cc1ncc(NC(=O)CNC2CCC2)cc1NC(=O)c1cnn2cc(-c3cnn4c3CCC4)sc12` [Example 471, N-(5-(2-(cyclobutylamino)acetamido)-2-methylpyridin-3-yl)-2-(5,6-dihydro-4H-pyrrolo[1,2-b]pyrazol-3-yl)pyrazolo[5,1-b]thiazole-7-carboxamide] are 0.1 nM and 3.4 nM.
Turning to `Cc1ncc(C(=O)NCCN2CCCC23CCC3)cc1NC(=O)c1cnn2cc(-c3cnn4c3COCC4)sc12` [Example 472, N-(5-((2-(5-azaspiro[3.4]octan-5-yl)ethyl)carbamoyl)-2-methylpyridin-3-yl)-2-(6,7-dihydro-4H-pyrazolo[5,1-c][1,4]oxazin-3-yl)pyrazolo[5,1-b]thiazole-7-carboxamide], the figures for the IC50 (in assay [1]; at PDGFRβ) were 0.4 nM and 5.4 nM, respectively.
In the same order, the values of `Cc1ncc(NC(=O)CN2CCC[C@@H]2C)cc1NC(=O)c1cnn2cc(-c3cnn4c3COCC4)sc12` [Example 473, (S)-2-(6,7-dihydro-4H-pyrazolo[5,1-c][1,4]oxazin-3-yl)-N-(2-methyl-5-(2-(2-methylpyrrolidin-1-yl)acetamido)pyridin-3-yl)pyrazolo[5,1-b]thiazole-7-carboxamide] are 0.4 nM and 5.3 nM.
In the same order, the values of `Cc1ncc(NC(=O)CN2CCC3(CC3)C2)cc1NC(=O)c1cnn2cc(-c3cnn4c3COCC4)sc12` [Example 474, N-(5-(2-(5-azaspiro[2.4]heptan-5-yl)acetamido)-2-methylpyridin-3-yl)-2-(6,7-dihydro-4H-pyrazolo[5,1-c][1,4]oxazin-3-yl)pyrazolo[5,1-b]thiazole-7-carboxamide] are 0.2 nM and 3.9 nM.
In the same order, the values of `Cc1ncc(NC(=O)CN2CCC23CCC3)cc1NC(=O)c1cnn2cc(-c3cnn4c3COCC4)sc12` [Example 475, N-(5-(2-(1-azaspiro[3.3]heptan-1-yl)acetamido)-2-methylpyridin-3-yl)-2-(6,7-dihydro-4H-pyrazolo[5,1-c][1,4]oxazin-3-yl)pyrazolo[5,1-b]thiazole-7-carboxamide] are 0.2 nM and 2.3 nM.

The values above are taken from US20240109917A1 (ACTELION PHARMACEUTICALS LTD, priority 2020, published 2024).
